Here are results for 14 compounds from ChEMBL document CHEMBL5303573, “Mapping human microbiome drug metabolism by gut bacteria and their genes” (Nature, 2019).

What all share (details): 2 µM
Series [1] can be described thus: The drug is tested on Providencia alcalifaciens strain: DSM30120 for biotransformation. The drug concentrations were measured before and after a 12-h incubation by liquid-chromatography-coupled mass spectrometry (LC–MS).
The nature of series [2]: The drug is tested on Proteus penneri strain: ATCC35198 for biotransformation. The drug concentrations were measured before and after a 12-h incubation by liquid-chromatography-coupled mass spectrometry (LC–MS).
For the next series, the target named is T1, Regulatory protein (Bacteroides thetaiotaomicron, UniProt Q8A576).
T1 sequence (Q8A576 whole entry): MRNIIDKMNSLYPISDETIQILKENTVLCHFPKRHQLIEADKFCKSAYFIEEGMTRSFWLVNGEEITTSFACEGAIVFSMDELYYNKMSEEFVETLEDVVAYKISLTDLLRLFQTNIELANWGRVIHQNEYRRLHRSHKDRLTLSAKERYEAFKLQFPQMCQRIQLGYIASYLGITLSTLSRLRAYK
In words: (§1) The drug is tested on Bacteroides thetaiotaomicron strain: VPI-5482 for biotransformation. The drug concentrations were measured before and after a 12-h incubation by liquid-chromatography-coupled mass spectrometry (LC–MS). The class given is ADME. More on the design: dose 2 uM.

Series [3] has as its target T2, Acetyl esterase (Acetylxylosidase) (Bacteroides thetaiotaomicron, UniProt Q8ABF8).
T2 sequence (Q8ABF8 whole entry): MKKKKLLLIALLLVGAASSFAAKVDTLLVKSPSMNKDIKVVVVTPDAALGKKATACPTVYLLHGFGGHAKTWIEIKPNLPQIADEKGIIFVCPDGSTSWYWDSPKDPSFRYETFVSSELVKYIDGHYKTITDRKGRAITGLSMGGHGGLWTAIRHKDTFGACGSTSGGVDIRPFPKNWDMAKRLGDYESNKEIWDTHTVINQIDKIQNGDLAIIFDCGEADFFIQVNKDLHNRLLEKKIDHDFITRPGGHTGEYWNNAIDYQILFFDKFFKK
Described as §1. More on the design: dose 2 uM. The class given is ADME.

Series [4] is described as follows: The drug is tested on the gut metagenome community of MV23 with ENA study accession number: PRJEB31790 and ENA sample accession number: SAMEA5537504 for biotransformation. The drug concentrations were measured over 9 timepoints collected between 0 and 24 hours of incubation by liquid-chromatography-coupled mass spectrometry (LC–MS). The class given is ADME. More on the design: dose 2 uM, timepoint 0, 1, 2, 4, 6, 8, 12, 18, 24 hours.

Series [5] in a line: The drug is tested on the gut metagenome community of MV05 with ENA study accession number: PRJEB31790 and ENA sample accession number: SAMEA5537486 for biotransformation. The drug concentrations were measured over 9 timepoints collected between 0 and 24 hours of incubation by liquid-chromatography-coupled mass spectrometry (LC–MS). The class given is ADME. More on the design: dose 2 uM, timepoint 0, 1, 2, 4, 6, 8, 12, 18, 24 hours.

Series [6] is described as follows: The drug is tested on the gut metagenome community of MV28 with ENA study accession number: PRJEB31790 and ENA sample accession number: SAMEA5537509 for biotransformation. The drug concentrations were measured over 9 timepoints collected between 0 and 24 hours of incubation by liquid-chromatography-coupled mass spectrometry (LC–MS). The arrangement: dose 2 uM, timepoint 0, 1, 2, 4, 6, 8, 12, 18, 24 hours. The class given is ADME.

Series [7] can be described thus: The drug is tested on the gut metagenome community of MV03 with ENA study accession number: PRJEB31790 and ENA sample accession number: SAMEA5537484 for biotransformation. The drug concentrations were measured over 9 timepoints collected between 0 and 24 hours of incubation by liquid-chromatography-coupled mass spectrometry (LC–MS). The class given is ADME. The arrangement: dose 2 uM, timepoint 0, 1, 2, 4, 6, 8, 12, 18, 24 hours.

Series [8] in a line: The drug is tested on the gut metagenome community of MV12 with ENA study accession number: PRJEB31790 and ENA sample accession number: SAMEA5537493 for biotransformation. The drug concentrations were measured over 9 timepoints collected between 0 and 24 hours of incubation by liquid-chromatography-coupled mass spectrometry (LC–MS). More on the design: dose 2 uM, timepoint 0, 1, 2, 4, 6, 8, 12, 18, 24 hours. The class given is ADME.

The nature of series [9]: The drug is tested on the gut metagenome community of MV19 with ENA study accession number: PRJEB31790 and ENA sample accession number: SAMEA5537500 for biotransformation. The drug concentrations were measured over 9 timepoints collected between 0 and 24 hours of incubation by liquid-chromatography-coupled mass spectrometry (LC–MS). More on the design: dose 2 uM, timepoint 0, 1, 2, 4, 6, 8, 12, 18, 24 hours. The class given is ADME.

Series [10] can be described thus: The drug is tested on the gut metagenome community of MV10 with ENA study accession number: PRJEB31790 and ENA sample accession number: SAMEA5537491 for biotransformation. The drug concentrations were measured over 9 timepoints collected between 0 and 24 hours of incubation by liquid-chromatography-coupled mass spectrometry (LC–MS). The class given is ADME. More on the design: dose 2 uM, timepoint 0, 1, 2, 4, 6, 8, 12, 18, 24 hours.

Series [11] is described as follows: The drug is tested on the gut metagenome community of MV08 with ENA study accession number: PRJEB31790 and ENA sample accession number: SAMEA5537489 for biotransformation. The drug concentrations were measured over 9 timepoints collected between 0 and 24 hours of incubation by liquid-chromatography-coupled mass spectrometry (LC–MS). The class given is ADME. The arrangement: dose 2 uM, timepoint 0, 1, 2, 4, 6, 8, 12, 18, 24 hours.

Series [12] can be described thus: The drug is tested on the gut metagenome community of MV26 with ENA study accession number: PRJEB31790 and ENA sample accession number: SAMEA5537507 for biotransformation. The drug concentrations were measured over 9 timepoints collected between 0 and 24 hours of incubation by liquid-chromatography-coupled mass spectrometry (LC–MS). The arrangement: dose 2 uM, timepoint 0, 1, 2, 4, 6, 8, 12, 18, 24 hours. The class given is ADME.

The nature of series [13]: The drug is tested on the gut metagenome community of MV11 with ENA study accession number: PRJEB31790 and ENA sample accession number: SAMEA5537492 for biotransformation. The drug concentrations were measured over 9 timepoints collected between 0 and 24 hours of incubation by liquid-chromatography-coupled mass spectrometry (LC–MS). The class given is ADME. The arrangement: dose 2 uM, timepoint 0, 1, 2, 4, 6, 8, 12, 18, 24 hours.

The nature of series [14]: The drug is tested on the gut metagenome community of MV09 with ENA study accession number: PRJEB31790 and ENA sample accession number: SAMEA5537490 for biotransformation. The drug concentrations were measured over 9 timepoints collected between 0 and 24 hours of incubation by liquid-chromatography-coupled mass spectrometry (LC–MS). The class given is ADME. The arrangement: dose 2 uM, timepoint 0, 1, 2, 4, 6, 8, 12, 18, 24 hours.

A short description of series [15]: The drug is tested on the gut metagenome community of MV21 with ENA study accession number: PRJEB31790 and ENA sample accession number: SAMEA5537502 for biotransformation. The drug concentrations were measured over 9 timepoints collected between 0 and 24 hours of incubation by liquid-chromatography-coupled mass spectrometry (LC–MS). The class given is ADME. The arrangement: dose 2 uM, timepoint 0, 1, 2, 4, 6, 8, 12, 18, 24 hours.

Series [16] in a line: The drug is tested on the gut metagenome community of MV25 with ENA study accession number: PRJEB31790 and ENA sample accession number: SAMEA5537506 for biotransformation. The drug concentrations were measured over 9 timepoints collected between 0 and 24 hours of incubation by liquid-chromatography-coupled mass spectrometry (LC–MS). The arrangement: dose 2 uM, timepoint 0, 1, 2, 4, 6, 8, 12, 18, 24 hours. The class given is ADME.

Series [17] can be described thus: The drug is tested on the gut metagenome community of MV13 with ENA study accession number: PRJEB31790 and ENA sample accession number: SAMEA5537494 for biotransformation. The drug concentrations were measured over 9 timepoints collected between 0 and 24 hours of incubation by liquid-chromatography-coupled mass spectrometry (LC–MS). The class given is ADME. The arrangement: dose 2 uM, timepoint 0, 1, 2, 4, 6, 8, 12, 18, 24 hours.

Series [18] is described as follows: The drug is tested on the gut metagenome community of MV24 with ENA study accession number: PRJEB31790 and ENA sample accession number: SAMEA5537505 for biotransformation. The drug concentrations were measured over 9 timepoints collected between 0 and 24 hours of incubation by liquid-chromatography-coupled mass spectrometry (LC–MS). The class given is ADME. The arrangement: dose 2 uM, timepoint 0, 1, 2, 4, 6, 8, 12, 18, 24 hours.

Take `C#C[C@]1(OC(C)=O)CC[C@H]2[C@@H]3CCC4=C/C(=N/O)CC[C@@H]4[C@H]3CC[C@@]21CC` [NORGESTIMATE]: the “Bacterial Biotransformation” value in [1] and in series [2] was “Compound NOT metabolized” each time.
With `COC(=O)Nc1nc2ccc(C(=O)c3ccccc3)cc2[nH]1` [MEBENDAZOLE], the “Bacterial Biotransformation” value in series [1] and in series [2] was “Compound NOT metabolized” in each case.
`C#C[C@]1(O)CC[C@H]2[C@@H]3CCC4=CC(=O)CC[C@@H]4[C@H]3CC[C@@]21CC` [LEVONORGESTREL]: the “Bacterial Biotransformation” value (at Regulatory protein; in series [3]) was “Compound NOT metabolized” throughout.
In the case of `CNCC[C@H](Oc1cccc2ccccc12)c1cccs1` [DULOXETINE], in series [1], the “Bacterial Biotransformation” value is recorded as “Compound metabolized”.
The same measure, in the same setting: the value for `CC(C)(C(=O)O)c1ccc(C(O)CCCN2CCC(C(O)(c3ccccc3)c3ccccc3)CC2)cc1` (stereo not given) [FEXOFENADINE] was “Compound NOT metabolized”.
As for `CC(=O)OCC(=O)[C@@]1(OC(C)=O)[C@@H](C)C[C@H]2[C@@H]3C[C@H](F)C4=CC(=O)C=C[C@]4(C)[C@@]3(F)[C@@H](O)C[C@@]21C` [DIFLORASONE DIACETATE], the “Bacterial Biotransformation” value (on Regulatory protein; in series [3]) was “Compound NOT metabolized” throughout.
As for `O=C(CCCN1CCC(O)(c2ccc(Cl)cc2)CC1)c1ccc(F)cc1` [HALOPERIDOL], the “Bacterial Biotransformation” value in series [1] and in series [2] was “Compound NOT metabolized” in each case.
As for `N#Cc1ccc2c(c1)N(CCCN1CCC(O)CC1)c1ccccc1S2` [PERICIAZINE], the “Bacterial Biotransformation” value (at Regulatory protein; in [3]) was “Compound NOT metabolized” each time.
Consider `CC(=O)OCC(CCn1cnc2cnc(N)nc21)COC(C)=O` [FAMCICLOVIR], for which the “Bacterial Biotransformation” value is listed as “Compound metabolized” in [4]; “Compound metabolized” in series [5]; “Compound metabolized” in series [6]; “Compound metabolized” in [7]; “Compound metabolized” in series [8]; “Compound NOT metabolized” in series [9]. The “Bacterial Biotransformation” value in [10], in series [11], in series [12], in series [13], in series [14] and in series [15] was “Compound metabolized” throughout. Besides, the “Bacterial Biotransformation” value in [16] is “Compound metabolized”; at Regulatory protein it was “Compound NOT metabolized”; in [3], “Compound metabolized”; in [17], “Compound metabolized”; in series [18] it was “Compound metabolized”.
`COc1ccc([C@@H]2Sc3ccccc3N(CCN(C)C)C(=O)[C@@H]2OC(C)=O)cc1` [DILTIAZEM]: the “Bacterial Biotransformation” value in series [4], in [5], in series [6], in series [7], in [8] and in series [9] was “Compound NOT metabolized” throughout. Also, the “Bacterial Biotransformation” value in [10], in series [11], in series [12], in series [13], in [14] and in [15] was “Compound NOT metabolized” in each case. Besides, the “Bacterial Biotransformation” value (in series [16]; on Regulatory protein; in series [3]; in series [17]; in series [18]) was “Compound NOT metabolized” each time.
As for `COc1ccc2cc([C@H](C)C(=O)O)ccc2c1` [NAPROXEN], in [1], the “Bacterial Biotransformation” value is given as “Compound NOT metabolized”.
For `CN1[C@@H]2CC[C@H]1C[C@@H](OC(=O)C(CO)c1ccccc1)C2` (stereo not given in full) [ATROPINE], the “Bacterial Biotransformation” value in [1] and in [2] was “Compound NOT metabolized” in each case.
As to `Cc1ccc(NC(=O)c2ccc(CN3CCN(C)CC3)cc2)cc1Nc1nccc(-c2cccnc2)n1` [IMATINIB], the “Bacterial Biotransformation” value in series [1] and in series [2] was “Compound NOT metabolized” in each case.
Consider `C#C[C@]1(OC(C)=O)CC[C@H]2[C@@H]3CCC4=CC(=O)CC[C@@H]4[C@H]3CC[C@@]21C` [NORETHINDRONE ACETATE], for which the “Bacterial Biotransformation” value in series [4] is “Compound metabolized”; in [5], “Compound metabolized”; in [6] it was “Compound metabolized”; in series [7] it was “Compound metabolized”; in series [8], “Compound metabolized”; in series [9] it was “Compound NOT metabolized”. Further, the “Bacterial Biotransformation” value in [10], in [11], in series [12], in series [13], in series [14] and in series [15] was “Compound metabolized” each time. Moreover, the “Bacterial Biotransformation” value in series [16] is “Compound metabolized”; on Regulatory protein, “Compound NOT metabolized”; in series [3], “Compound NOT metabolized”; in series [17], “Compound metabolized”; in [18] it was “Compound metabolized”.
